System: H2-Dd expression
Assay: H2-Dd surface expression on MHC-I^low lung tumor escaper cell lines (flow cytometry)
Type: cell-based, mouse
Settings: H2-Dd-downregulated cell lines; ADU-S100 50 μM, 24 h
Method: To uncover the mechanisms that would explain this resistance to treatment, ex vivo escaped tumors were isolated from each treatment group. […] To understand whether the observed H2-Dd downregulation was sufficient to impair tumor rejection, tumor cells with high H2-Dd isolated from untreated mice or tumor cells with low H2-Dd isolated from ALK vaccinated mice and treated with ICI were injected. Treatment with ICI induced rejection of tumors with high H2-Dd expression (FIGS. 6D-6E), consistent with previous experiments (FIG. 3E), but not of escaped tumors with low H2-Dd expression (FIGS. 6F-6G). Finally, it was asked whether H2-Dd expression could be restored by Stimulator of IFN genes (STING) signaling that can increase MHC-I expression in other models of lung cancer.
Allophycocyanin (APC)-conjugates H-2D^d-[…] (SEQ ID NO: 22) Dextramer reagents were obtained from Immudex (Immudex, Denmark). […] After washing step, cells were ready to be acquired. When referred, also PD-1 (clone RMP1-30; BV421-PD-1, BD Pharmingen™, USA) expression was evaluated together with dextramer staining, being added together with FITC-CD8. H2-Dd MHC-I expression was measured on relapsed tumors after treatment. […] All cells were acquired in a BD Celesta flow cytometer (BD Bioscience, USA) and analyzed by using the FlowJo software (FlowJo LCC, USA). […]

## Nc1ncnc2c1ncn2[C@@H]1O[C@@H]2CO[P@](=O)(S)O[C@@H]3[C@H](O)[C@@H](CO[P@@](=O)(S)O[C@H]2[C@H]1O)O[C@H]3n1cnc2c(N)ncnc21 [ADU-S100, reference compound]
  H2-Dd expression: strongly upregulating H2-Dd expression
